Experimental findings from US20250214999A1, “HETEROCYCLIC GLP-1 AGONISTS” (Gasherbrum Bio, Inc., priority 2020, published 2025) are described below.

GLP-1 Receptor, sequence (P43220 24-463): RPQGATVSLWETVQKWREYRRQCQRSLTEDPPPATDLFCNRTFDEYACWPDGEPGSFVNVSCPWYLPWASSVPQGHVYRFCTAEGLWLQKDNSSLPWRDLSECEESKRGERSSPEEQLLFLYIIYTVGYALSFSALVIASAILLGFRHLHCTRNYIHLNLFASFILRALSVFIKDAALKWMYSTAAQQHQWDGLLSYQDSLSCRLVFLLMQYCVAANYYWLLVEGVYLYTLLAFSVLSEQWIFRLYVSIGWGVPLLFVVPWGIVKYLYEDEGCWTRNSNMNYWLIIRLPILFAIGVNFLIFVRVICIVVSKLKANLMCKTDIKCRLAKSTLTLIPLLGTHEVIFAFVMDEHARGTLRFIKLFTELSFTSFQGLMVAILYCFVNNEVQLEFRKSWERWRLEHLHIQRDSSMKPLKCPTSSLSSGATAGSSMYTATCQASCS

One data set concerns the target GLP-1 Receptor (Homo sapiens (Human), UniProt P43220). Kind of data set: GLP-1R agonist cAMP stimulation assay (HEK293/GLP1R/CRE-LUC cells). In kind it is cell-based. The conditions noted are these: 30 min incubation, read-out: GLP1R cAMP Stimulation DR: EC50. On the procedure: Activation of GLP-1 receptor is known to stimulate cyclic AMP (cAMP) production in cells which indicates primary coupling to the Gαs subunit of the G protein heterotrimeric complex.
To optimize functional activity directed toward Gαs coupling, a HEK293/CRELuc cell line developed by HDB stably expressing the GLP-1 Receptor was used. 200× concentration of compound working solutions were prepared (Agilent Technologies Bravo) with 1/2 log serial dilution in 384-well Echo LDV plate (Labcyte, Cat #LP-0200). 50 nL/well 200× concentration of compound working solutions were moved to 384-well white low volume plate (Greiner, Cat #784075) using Labcyte ECHO550. 1×10^5 cells/mL HEK293/GLP1R/CRE-LUC (HD Biosciences) cell suspensions prepared with assay buffer [DPBS containing 0.5 mM IBMX (Sigma,Cat #I5879) and 0.1% BSA (GENVIEW, Cat #FA016-100 g)], 10 uL cell suspensions were added to each well of previous generated assay plate which already contains 50 nl compound at 200× concentration using ThermoFisher Multidrop Combi (1000cells/well). Seal the plate and incubate at 37° C. with 5% CO2 for 30 min.
After incubation the CAMP assay signal was generated using cAMP dynamic 2 Kit (Cisbio). 5 μL cAMP-d2 working solution was added to each well, followed with 5 μL Anti-cAMP antibody-cryptate working solution added to each well using ThermoFisher Multidrop Combi. Incubate at room temperature for 1 hour protected from light. Read the fluorescence at 665 and 615 nm with Reader PerkinElmer En Vision.
By EC50 is commonly meant the concentration giving half of the maximal effect. Consider `N#Cc1ccc([C@H]2COc3c(cccc3C3CCN(Cc4nc5ccc(C(=O)O)nc5n4C[C@@H]4CCO4)CC3)O2)cc1` [Compound 118c, 2-((4-((S)-2-(4-cyanophenyl)-2,3-dihydrobenzo[b][1,4]dioxin-5-yl)piperidin-1-yl)methyl)-3-(((S)-oxetan-2-yl)methyl)-3H-imidazo[4,5-b]pyridine-5-carboxylic acid], for which the EC50 fell in the range of 20 to 200 nM.
Regarding `O=C(O)c1ccc2nc(CN3CCC(c4cccc5c4OCC(c4ccc(C(F)(F)F)cc4)O5)CC3)n(C[C@@H]3CCO3)c2n1` (stereo partly drawn) [Compound 119a, 2-((4-(2-(4-(trifluoromethyl)phenyl)-2,3-dihydrobenzo[b][1,4]dioxin-5-yl)piperidin-1-yl)methyl)-3-(((S)-oxetan-2-yl)methyl)-3H-imidazo[4,5-b]pyridine-5-carboxylic acid], the EC50 was no more than 0.2 nM.
Same read-out and setting: the result for `O=C(O)c1ccc2nc(CN3CCC(c4cccc5c4OC[C@@H](c4ccc(Cl)cc4F)O5)CC3)n(C[C@@H]3CCO3)c2c1` [Compound 120b, 2-((4-((R)-2-(4-chloro-2-fluorophenyl)-2,3-dihydrobenzo[b][1,4]dioxin-5-yl)piperidin-1-yl)methyl)-1-((S)-oxetan-2-ylmethyl)-1H-benzo[d]imidazole-6-carboxylic acid] reads 0.2 to 20 nM.
On the same count and under the same terms, the result for `O=C(O)c1ccc2nc(CN3CCC(c4cccc5c4OC[C@H](c4ccc(Cl)cc4F)O5)CC3)n(C[C@@H]3CCO3)c2c1` [Compound 120c, 2-((4-((S)-2-(4-chloro-2-fluorophenyl)-2,3-dihydrobenzo[b][1,4]dioxin-5-yl)piperidin-1-yl)methyl)-1-((S)-oxetan-2-ylmethyl)-1H-benzo[d]imidazole-6-carboxylic acid] reads 20 to 200 nM; that for `O=C(O)c1ccc2nc(CN3CCN(c4cccc5c4OCC(c4ccc(Cl)cc4F)C5)CC3)n(C[C@@H]3CCO3)c2n1` (stereo partly drawn) [Compound 121a, 2-((4-(3-(4-Chloro-2-fluorophenyl)chroman-8-yl)piperazin-1-yl)methyl)-3-(((S)oxetan-2-yl)methyl)-3H-imidazo[4,5-b]pyridine-5-carboxylic acid], 20 to 200 nM; that for `O=C(O)c1ccc2nc(CN3CCC(c4cccc5c4OCC(c4ccccc4F)C5)CC3)n(C[C@@H]3CCO3)c2n1` (stereo partly drawn) [Compound 122a, 2-((4-(3-(2-fluorophenyl) Chroman-8-yl)piperidin-1-yl)methyl)-3-(((S)-oxetan-2-yl)methyl)-3H-imidazo[4,5-b]pyridine-5-carboxylic acid], 20 to 200 nM.
Turning to `O=C(O)c1ccc2nc(CN3CCN(c4cccc5c4CCC(c4ccc(Cl)cc4F)O5)CC3)n(C[C@@H]3CCO3)c2n1` (stereo partly drawn) [Compound 123a, 2-((4-(2-(4-Chloro-2-fluorophenyl)chroman-5-yl)piperazin-1-yl)methyl)-3-((S)oxetan-2-ylmethyl)-3H-imidazo[4,5-b]pyridine-5-carboxylic acid], the EC50 lay within 20 to 200 nM.
`O=C(O)c1ccc2nc(CN3CCC(c4cccc5c4OCC(c4ccc(Cl)cc4F)N5)CC3)n(C[C@@H]3CCO3)c2n1` (stereo partly drawn) [Compound 124a, 2-((4-(3-(4-chloro-2-fluorophenyl)-3,4-dihydro-2H-benzo[b][1,4]oxazin-8-yl)piperidin-1-yl)methyl)-3-(((S)-oxetan-2-yl)methyl)-3H-imidazo[4,5-b]pyridine-5-carboxylic acid]: the EC50 fell in the range of 0.2 to 20 nM.
On to `O=C(O)c1ccc2nc(CN3CCC(c4cccc5c4OCC(c4ccccc4F)N5)CC3)n(C[C@@H]3CCO3)c2n1` (stereo partly drawn) [Compound 125a, 2-((4-(3-(2-fluorophenyl)-3,4-dihydro-2H-benzo[b][1,4]oxazin-8-yl)piperidin-1-yl)methyl)-3-(((S)-oxetan-2-yl)methyl)-3H-imidazo[4,5-b]pyridine-5-carboxylic acid], for which the EC50 fell in the range of 20 to 200 nM.
Same read-out and setting: under `O=C(O)c1ccc2nc(CN3CCC(c4cccc5c4CCN(c4ccc(Cl)cc4)C5)CC3)n(C[C@@H]3CCO3)c2n1` [Compound 126a] stands greater than 200 nM; under `CC1(c2ccc(Cl)cc2F)COc2c(cccc2C2CCN(Cc3nc4ccc(C(=O)O)nc4n3C[C@@H]3CCO3)CC2)O1` (stereo partly drawn) [Compound 127a, 2-((4-(2-(4-chloro-2-fluorophenyl)-2-methyl-2,3-dihydrobenzo[b][1,4]dioxin-5-yl)piperidin-1-yl)methyl)-3-((S)-oxetan-2-ylmethyl)-3H-imidazo[4,5-b]pyridine-5-carboxylic acid], 0.2 to 20 nM.
Still for that read-out and setting: under `CC1(c2ccc(Cl)cc2)COc2c(cccc2C2CCN(Cc3nc4ccc(C(=O)O)nc4n3C[C@@H]3CCO3)CC2)O1` (stereo partly drawn) [Compound 128a, 2-((4-(2-(4-chlorophenyl)-2-methyl-2,3-dihydrobenzo[b][1,4]dioxin-5-yl)piperidin-1-yl)methyl)-3-((S)-oxetan-2-ylmethyl)-3H-imidazo[4,5-b]pyridine-5-carboxylic acid] stands 0.2 to 20 nM; under `N#Cc1ccc([C@@H]2COc3c(cccc3C3CCN(Cc4nc5ccc(C(=O)O)cc5n4C[C@@H]4CCO4)CC3)O2)cc1` [Compound 129a, 2-((4-((R)-2-(4-Cyanophenyl)-2,3-dihydrobenzo[b][1,4]dioxin-5-yl)piperidin-1-yl)methyl)-1-(((S)-oxetan-2-yl)methyl)-1H-benzo[d]imidazole-6-carboxylic acid], no more than 0.2 nM.
On the same count and under the same terms, the result for `O=C(O)c1ccc2nc(CN3CCC(c4cccc5c4OC(c4ccc(Cl)cc4F)CO5)CC3)n(C[C@@H]3CCO3)c2n1` (stereo partly drawn) [Compound 130a, 2-((4-(3-(4-chloro-2-fluorophenyl)-2,3-dihydrobenzo[b][1,4]dioxin-5-yl)piperidin-1-yl)methyl)-3-(((S)-oxetan-2-yl)methyl)-3H-imidazo[4,5-b]pyridine-5-carboxylic acid] reads no more than 0.2 nM.

System in the next data set: not listed separately
Kind of data set: Nonhuman primate (NHP) pharmacokinetics (PK) study. The format is in vivo, cynomolgus monkey. To be noted: cynomolgus monkey, plasma, 1 mg/kg; male NHP, oral (PO), Dose 1. The procedure:
Pharmacokinetics (PK) study was conducted on male NHP (e.g. cynomolgus monkey) by two delivery routes intravenous (IV) and/or oral gavage (PO). NHP in IV route (n=3) were free access to food and water. NHP in PO route (n=3) were fasted overnight and fed at 4 hrs post dosing. Test article was formulated in solution for IV route and solution or suspension for PO route, respectively.
On the day of experiment, test article was administered via vein (e.g. cephalic vein) injection (commonly at 0.2 to 1 mg/kg and 1 to 2 mL/kg) for IV route or via oral gavage (commonly at 1 to 100 mg/kg and 2 to 10 mL/kg) for PO route, respectively.
Blood samples were collected via serial bleeding at ˜8 time points from 0.083 to 24 hours post dose. Approximate 500 μL of blood/time point was collected into EDTA-K2 tube via cephalic or saphenous vein. Blood samples were put on wet ice and centrifuged to obtain plasma samples and plasma samples were submitted to LCMS/MS for sample analysis.
Pharmacokinetics parameters, including maximum plasma concentration (Cmax), time to reach maximum plasma concentration (Tmax), area under the curve (AUC0-4) and oral bioavailability (F%), etc., were calculated by non-compartmental model using WinNonlin.
Exemplary compounds of Formula I (e.g., certain compounds of Formula IB (e.g., Formula IB-1)) were tested using the protocol above. Reference compound REF1 was tested as a control compound.
Broadly, the Tmax is the time at which the peak concentration occurs. On to `N#Cc1ccc(COc2cccc(C3CCN(Cc4nc5ccc(C(=O)O)cc5n4C[C@@H]4CCO4)CC3)n2)c(F)c1` [REF1], for which the Tmax came out at 5.33 h.

Still in this data set, the particulars now being: cynomolgus monkey, plasma; male NHP, oral bioavailability.
In general, bioavailability refers to dose-corrected exposure relative to a reference, in per cent. A lower bioavailability goes with little systemic uptake. Regarding `N#Cc1ccc(COc2cccc(C3CCN(Cc4nc5ccc(C(=O)O)cc5n4C[C@@H]4CCO4)CC3)n2)c(F)c1` [REF1], the bioavailability turned out to be 3.14%.

The same data set, now with this note: male NHP, oral (PO), Dose 1.
Take `N#Cc1ccc(COc2cccc(C3CCN(Cc4nc5ccc(C(=O)O)cc5n4C[C@@H]4CCO4)CC3)n2)c(F)c1` [REF1]: the AUC0-24 h is reported as 362 arbitrary unit and the Cmax came out at 36.0 arbitrary unit.
